Experimental data reported in patent US9089514B2, “Composition and method for inhibiting biogenic sulfide generation” (Arkion Life Sciences, priority 2010, dated 2015).
“And” between values parts separate entries of the source, which are not always exact repeats. Identical values can stand only once.

How the values were obtained:
Format in all cases: cell-based, Prudhoe Bay sulfate reducing bacteria
[1] = test system: sulfate reducing bacteria (SRB) biofilms; assay: Test Series #1: inhibition of H2S biogeneration from SRB biofilms on granite chips; settings: for Sulfides Day 1: day 1 after treatment; for Sulfides Day 1 / Sulfides Day 2 / Sulfides Day 3: THPS 51 ppmw, AQ or AHQ (AHQ-slurry-1) 25 ppmw per tube, 30° C.; for Sulfides Day 2: day 2 after treatment; for Sulfides Day 3: day 3 after treatment
Experimental: (§1) 1. Load 7 grams of crushed granite chips into 15-ml culture tubes; autoclave.
(§2) 2. Prepare an inoculum by adding a culture of Prudhoe Bay sulfate reducing bacteria to a flask containing an appropriate iron-free culture medium for sulfate reducing bacteria that further contains 90% deaerated artificial sea water. Incubate bacteria anaerobically at 30° C. for 3-4 days.
(§3) 3. Fill each 15 ml culture tube containing granite chips with the inoculum; incubate tubes anaerobically at 30° C. for 7-11 days in a Lab-Line Orbit Environ-Shaker set at 30° C. and 120 rpm. All incubation steps for the bacteria in the culture tubes were performed is in the Environ-Shaker.
(§4) 4. Pour off spent medium and fill with fresh medium. Incubate for 6-7 days then replace medium with fresh medium again. Repeat medium change after 4-8 days and incubate for 3-5 additional days.
(§5) 5. Treat the biofilms that have grown on the granite chips as described below. Incubate at 30° C.
(§6) 6. Monitor the aqueous sulfide content in the tubes daily for up to three days, beginning the day after treatment, to determine the effectiveness of each treatment option on generation of hydrogen sulfide. Sulfide dissolved in the medium was determined in mg/L using Hach Method 8131 for the Hach DR-2010 spectrophotometer. The method utilizes methylene blue to measure total sulfides. The sulfide level in each tube was determined by gently inverting the tube several times, uncapping the tube and quickly removing a 125 μl aliquot of solution, and recapping the tube. The aliquot was diluted in 24.9 ml of deionized water in a quartz cuvette for the Hach procedure. The procedure is summarized in Table 1 for three separate test series.
Following the growth of the sulfate reducing bacteria (SRB) biofilms on the granite chips in the culture tubes, the biofilms were treated by injecting the appropriate test solution and then gently tumbling the tubes for two minutes on a Barnstead/Thermolyne Labquake Tube Shaker to allow the treatment solution to dynamically contact the biofilms.
Test compound solutions were injected into the tubes. THPS was added to 51 ppmw per tube. AQ and AHQ-slurry-1 were added to 25 ppmw AQ or AHQ per tube. Each tube contained about 14 ml of medium. The tubes were tumbled for two minutes, then moved to a nitrogen glove bag. The liquid was removed and the tubes were washed once with is medium and then refilled with medium. The tubes were then tumbled once more for two minutes before being placed in a Lab-Line Orbit Environ-Shaker set at 30° C. and 120 rpm for incubation.
Control tubes contained biofilms on granite chips and culture medium, but no test compound. Control tubes were otherwise handled as described above for test-compound tubes.
In THPS-treated tubes all of the residual THPS was removed so that biocidal activity occurred only during the contact time while tumbling. In AQ and AHQ treated tubes, residual test solutions were allowed to remain in the tubes to simulate treatment in a tank, where AQ or AHQ settles in the biofilm/sludge at the bottom of the vessel. Treatments were performed in duplicate.

[2] = test system: sulfate reducing bacteria (SRB) biofilms; assay: Test Series #2: AQ, AHQ and AQ:AHQ slurries, sulfide monitoring in SRB biofilm tubes; settings: for Sulfides Day 1: day 1, same combined mass of active AQ plus AHQ; for Sulfides Day 1 / Sulfides Day 2 / Sulfides Day 3: AHQ-slurry-2 used; for Sulfides Day 2: day 2, same combined mass of active AQ plus AHQ; for Sulfides Day 3: day 3, same combined mass of active AQ plus AHQ
Experimental: as §1, §2, §3, §4, §5, §6
(§7) This test series was performed to further compare the efficacy of slurries of AHQ and AQ and combinations of AHQ/AQ in slurries in controlling H2S emissions. AHQ-slurry-2 was used in this series of experiments. The tests were performed by first removing the spent medium from the tubes, refilling with fresh medium, treating with the test solution, tumbling the tubes for two minutes, and then incubating at 30° C. in the Lab-Line Orbit Environ-Shaker.
Each test was made with the same combined mass of active AQ plus AHQ. Results, as summarized in Table 3 and FIG. 2, confirmed the results of Series #1 in that all treatments were effective compared with the control.

[3] = test system: sulfate reducing bacteria (SRB) biofilms; assay: Test Series #3b: simulated gravity settling, AQ vs AHQ-slurry-2, sulfide monitoring
Experimental: as §6
(§8) Gravity settling in the tank was simulated by spinning the culture tubes after treatment in a laboratory centrifuge at 2000 to 2700 rpm. The AQ or AHQ particles then “settled” to the bottom of the tube and were able to deposit into the biofilm on the granite chips. The medium above the granite chips was then removed and replaced with fresh medium. The tubes were then incubated at 30° C. in the Lab-Line Orbit Environ-Shaker. The concentration of AQ or AHQ in the removed medium was analyzed to determine the amount of AQ or AHQ deposited in the biofilm. Experiments were run with duplicate samples.
Test Series #3b was performed with the same procedure as Test Series #3a to compare the efficacy of the AQ test mixture (AQ) with that of AHQ-slurry-2 at the same AHQ or AQ mass loading (0.254 mg). The tubes were spun for 20 seconds.

[4] = test system: sulfate reducing bacteria (SRB) biofilms; assay: AHQ di-alkali salt solution vs AHQ-slurry-2 by the Test Series #2 procedure; settings: 18 ppmw AHQ
Experimental: as §6, §7
Each test treatment contained 18 ppmw AHQ. […] However, under some circumstances, larger particle sizes are preferable. […]

[5] = test system: sulfate reducing bacteria (SRB) biofilms; assay: Test Series #3a: simulated gravity settling in tank (centrifugation), sulfide monitoring; settings: 0.254 mg AHQ
Experimental: as §6, §8
Two series of tests were performed with this procedure. Series #3a compared the efficacy of treating with the AHQ di-alkali salt test solution (AHQ) and the AHQ test mixture #2 (AHQ-slurry-2) at the same AHQ mass loading (0.254 mg AHQ). Two different centrifugation times (20 sec, 60 sec) were utilized in Test Series #3a to represent two different tank residence times.

Oc1c2ccccc2c(O)c2ccccc12 [AHQ, anthrahydroquinone]
inhibiting H2S biogeneration from SRB biofilms (comparison in words) [1]: superior to THPS, AQ, and the combination of THPS and AQ | Sulfides Day 1 [1]: 9.2 mg/L and 11.2 mg/L | Sulfides Day 2 [1]: 23 mg/L and 27 mg/L | Sulfides Day 3 [1]: 30.6 mg/L and 31 mg/L | inhibiting the generation of H2S (comparison in words) [2]: more effective than AQ solution alone or AHQ/AQ neutral slurry combinations | Sulfides Day 1 [2]: 22.2 mg/L and 19.6 mg/L | Sulfides Day 2 [2]: 31 mg/L and 26.6 mg/L | Sulfides Day 3 [2]: 36.8 mg/L and 36.4 mg/L | inhibiting H2S generation (comparison in words) [3]: superior to AQ in inhibiting H2S generation

tetrakishydroxymethylphosphonium sulfate [THPS]
Sulfides Day 1 [1]: 18 mg/L and 19.8 mg/L | Sulfides Day 2 [1]: 39.6 mg/L and 38.4 mg/L | Sulfides Day 3 [1]: 46.2 mg/L

O=C1c2ccccc2C(=O)c2ccccc21 [AQ, anthraquinone]
inhibiting H2S biogeneration from SRB biofilms (comparison in words) [1]: comparable to THPS treatment | Sulfides Day 1 [1]: 22.6 mg/L and 19 mg/L | Sulfides Day 2 [1]: 41.2 mg/L and 34.6 mg/L | Sulfides Day 3 [1]: 46.2 mg/L and 40.8 mg/L | Sulfides Day 1 [2]: 33.2 mg/L and 30.4 mg/L | Sulfides Day 2 [2]: 40 mg/L and 38.8 mg/L | Sulfides Day 3 [2]: 44.4 mg/L and 43.2 mg/L | Sulfides Day 1 ([3]; spun 20 sec, 0.254 mg AHQ or AQ, day 1): 43.8 mg/L and 33.8 mg/L | Sulfides Day 2 ([3]; spun 20 sec, 0.254 mg AHQ or AQ, day 2): 54.2 mg/L and 50.2 mg/L

[Na+].[Na+].[O-]c1c2ccccc2c([O-])c2ccccc12 [AHQ, dialkali salt solution, anthrahydroquinone di-alkali salt]
reducing sulfides (comparison in words) [4]: superior to AHQ neutral slurry in reducing sulfides | sulfides on day 3 of treatment ([4]; Test Series #2 procedure (no settling)): 7.4 mg/L | Sulfides Day 1 ([5]; centrifugation 20 sec): 29 mg/L and 31 mg/L | Sulfides Day 2 ([5]; centrifugation 20 sec): 37.6 mg/L and 45.2 mg/L | Sulfides Day 3 ([5]; centrifugation 20 sec): 42 mg/L and 48.6 mg/L | Sulfides Day 1 ([5]; centrifugation 60 sec): 36.6 mg/L and 21.8 mg/L | Sulfides Day 2 ([5]; centrifugation 60 sec): 50.8 mg/L and 37 mg/L | Sulfides Day 3 ([5]; centrifugation 60 sec): 53.6 mg/L and 42.6 mg/L
